Where two headings read alike, the source gives them in different places.

This is an account of results in article PMC9516332 (Frontiers in Oncology, 2022).

What all share (test): Kinase panel profiling at 1 µmol/L (MSA or IMAP), percentage inhibition
Holding throughout (type): biochemical

In experiment [1] the target is T1, panel of 255 wild-type kinases (Homo sapiens, UniProt O00418).
T1 sequence (O00418 1-725): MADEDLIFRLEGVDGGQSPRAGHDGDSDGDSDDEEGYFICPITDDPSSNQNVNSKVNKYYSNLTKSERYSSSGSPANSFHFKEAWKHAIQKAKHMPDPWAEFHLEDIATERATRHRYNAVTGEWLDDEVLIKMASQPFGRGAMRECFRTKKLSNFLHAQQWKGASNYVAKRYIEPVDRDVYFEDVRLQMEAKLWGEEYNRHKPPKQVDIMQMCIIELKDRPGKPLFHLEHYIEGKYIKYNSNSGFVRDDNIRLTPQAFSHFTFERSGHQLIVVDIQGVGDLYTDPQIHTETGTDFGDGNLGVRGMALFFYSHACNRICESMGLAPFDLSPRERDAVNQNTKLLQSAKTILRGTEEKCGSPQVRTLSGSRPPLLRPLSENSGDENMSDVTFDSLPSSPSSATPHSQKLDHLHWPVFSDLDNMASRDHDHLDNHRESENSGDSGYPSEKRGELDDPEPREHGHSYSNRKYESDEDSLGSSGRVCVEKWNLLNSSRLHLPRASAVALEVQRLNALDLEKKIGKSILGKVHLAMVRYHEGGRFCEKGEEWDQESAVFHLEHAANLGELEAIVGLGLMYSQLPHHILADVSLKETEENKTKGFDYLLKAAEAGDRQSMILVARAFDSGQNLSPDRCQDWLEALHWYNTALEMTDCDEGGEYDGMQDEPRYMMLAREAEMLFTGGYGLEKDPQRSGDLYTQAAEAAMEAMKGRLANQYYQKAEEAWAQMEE
The note with it: read-out: %-inhibition at 1 µmol/L, EEF2K.

The target of experiment [2] is panel of 255 wild-type kinases (Homo sapiens, UniProt Q9H422). Particulars: read-out: %-inhibition at 1 µmol/L, HIPK3.
Experiment [3] addresses T2, panel of 255 wild-type kinases (Homo sapiens, UniProt Q8TD19).
T2 sequence (Q8TD19 1-979): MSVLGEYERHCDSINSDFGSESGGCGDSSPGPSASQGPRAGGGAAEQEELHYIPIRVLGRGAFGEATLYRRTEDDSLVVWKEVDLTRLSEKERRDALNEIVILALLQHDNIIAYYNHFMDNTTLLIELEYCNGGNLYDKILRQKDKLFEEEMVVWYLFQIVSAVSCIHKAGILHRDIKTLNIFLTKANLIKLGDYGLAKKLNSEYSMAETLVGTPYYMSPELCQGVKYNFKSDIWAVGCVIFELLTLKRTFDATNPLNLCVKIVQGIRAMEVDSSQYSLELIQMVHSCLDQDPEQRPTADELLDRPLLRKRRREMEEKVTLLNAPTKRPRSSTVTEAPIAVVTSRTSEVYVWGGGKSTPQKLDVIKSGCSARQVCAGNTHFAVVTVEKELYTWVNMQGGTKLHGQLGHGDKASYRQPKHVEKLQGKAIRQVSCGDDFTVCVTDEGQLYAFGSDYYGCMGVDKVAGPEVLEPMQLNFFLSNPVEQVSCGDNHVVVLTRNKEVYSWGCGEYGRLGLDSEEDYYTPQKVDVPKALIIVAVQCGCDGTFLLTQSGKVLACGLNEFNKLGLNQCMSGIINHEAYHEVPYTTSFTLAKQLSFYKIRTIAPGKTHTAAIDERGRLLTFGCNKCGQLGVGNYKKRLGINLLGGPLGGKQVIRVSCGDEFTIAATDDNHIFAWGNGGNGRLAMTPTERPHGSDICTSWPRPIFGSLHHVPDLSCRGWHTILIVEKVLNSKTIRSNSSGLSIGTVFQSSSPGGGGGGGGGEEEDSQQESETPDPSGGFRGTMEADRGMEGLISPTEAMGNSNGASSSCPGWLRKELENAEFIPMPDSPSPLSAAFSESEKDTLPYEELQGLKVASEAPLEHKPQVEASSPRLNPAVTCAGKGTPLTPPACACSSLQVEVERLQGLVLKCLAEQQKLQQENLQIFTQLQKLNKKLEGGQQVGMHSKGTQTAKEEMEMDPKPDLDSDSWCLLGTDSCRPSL
The note with it: read-out: %-inhibition, NEK9.

The target of experiment [4] is panel of 255 wild-type kinases (Homo sapiens, UniProt Q9UPE1). Particulars: read-out: %-inhibition, MSSK1.
Experiment [5] has as its target T3, panel of 255 wild-type kinases (Homo sapiens, UniProt O43781).
T3 sequence (O43781 1-588): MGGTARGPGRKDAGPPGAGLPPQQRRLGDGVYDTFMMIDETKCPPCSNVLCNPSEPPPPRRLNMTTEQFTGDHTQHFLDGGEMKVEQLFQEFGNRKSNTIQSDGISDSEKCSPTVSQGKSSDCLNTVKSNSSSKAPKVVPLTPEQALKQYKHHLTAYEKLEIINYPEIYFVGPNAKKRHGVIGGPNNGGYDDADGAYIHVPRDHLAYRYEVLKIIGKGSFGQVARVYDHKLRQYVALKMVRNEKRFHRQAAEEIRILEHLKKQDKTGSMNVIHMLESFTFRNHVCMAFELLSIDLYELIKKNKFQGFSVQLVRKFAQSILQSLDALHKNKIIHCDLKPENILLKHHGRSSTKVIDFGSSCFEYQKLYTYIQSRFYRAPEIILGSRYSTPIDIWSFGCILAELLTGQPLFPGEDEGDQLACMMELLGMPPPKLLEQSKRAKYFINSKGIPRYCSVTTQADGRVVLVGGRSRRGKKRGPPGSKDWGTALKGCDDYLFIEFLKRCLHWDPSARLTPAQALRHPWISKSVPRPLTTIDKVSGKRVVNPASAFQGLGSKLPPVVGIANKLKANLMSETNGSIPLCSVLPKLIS
The note with it: read-out: %-inhibition at 1 µmol/L, DYRK3.

For experiment [6], the target named is panel of 255 wild-type kinases (Homo sapiens, UniProt P08069). Particulars: read-out: %-inhibition at 1 µmol/L, IGF1R.
Setting [7] is: kinase EEF2K, 1 µmol/L single concentration.
[8] abbreviates: kinase HIPK3, 1 µmol/L single concentration.
Where [9] appears, read: NEK9, 1 µmol/L single concentration.
Setting [10] is: MSSK1, 1 µmol/L single concentration.
Where [11] appears, read: kinase DYRK3, 1 µmol/L single concentration.
Where [12] appears, read: kinase IGF1R, 1 µmol/L single concentration.

Regarding `Cn1cc(-c2cc3c(N4CCN(c5ncc([C@@](C)(N)c6ccc(F)cc6)cn5)CC4)ncnn3c2)cn1` [avapritinib], the inhibition at 1 µM is -1.21% in experiment [1] (setting [7]); -0.071% in experiment [2] (setting [8]); 30% in experiment [3] (setting [9]); 0.0476% in experiment [4] (setting [10]); 49% in experiment [5] (setting [11]); 3.41% in experiment [6] (setting [12]).

Turning to `C[C@H](Nc1ncnc2nc[nH]c12)c1cc2cccc(Cl)c2c(=O)n1-c1ccccc1` [duvelisib], the inhibition at 1 µM in experiment [1] (setting [7]) is 0.762%; in experiment [2] (setting [8]), 3.5%; in experiment [3] (setting [9]), 1.7%; in experiment [4] (setting [10]), -2.73%; in experiment [5] (setting [11]), -2%; in experiment [6] (setting [12]), 1.51%.

With `COc1cc2ncnc(Nc3ccc(F)c(Cl)c3)c2cc1NC(=O)/C=C/CN1CCCCC1` [dacomitinib], the inhibition at 1 µM in experiment [1] (setting [7]) is 0%; in experiment [2] (setting [8]), 3.75%; in experiment [3] (setting [9]) it was -1.05%; in experiment [4] (setting [10]), 0.445%; in experiment [5] (setting [11]), 18%; in experiment [6] (setting [12]), 3.29%.

In the case of `CCN1CCN(c2ccc(Nc3cc(N(C)C(=O)Nc4c(Cl)c(OC)cc(OC)c4Cl)ncn3)cc2)CC1` [infigratinib], the inhibition at 1 µM in experiment [1] (setting [7]) is 2.54%; in experiment [2] (setting [8]), -3.71%; in experiment [3] (setting [9]) it was 10%; in experiment [4] (setting [10]), -2.83%; in experiment [5] (setting [11]), -10%; in experiment [6] (setting [12]), 18%.

Regarding `Cn1cnc2c(F)c(Nc3ccc(Br)cc3Cl)c(C(=O)NOCCO)cc21` [selumetinib], the inhibition at 1 µM was 2.4% in experiment [1] (setting [7]); 3% in experiment [2] (setting [8]); 0.727% in experiment [3] (setting [9]); -5.32% in experiment [4] (setting [10]); -4.7% in experiment [5] (setting [11]); 5.57% in experiment [6] (setting [12]).

With `CNC(=O)c1ccc(-c2cnc3ncc(Cc4ccc5ncccc5c4)n3n2)cc1F` [capmatinib], the inhibition at 1 µM was -0.629% in experiment [1]; -3% in experiment [2]; -1.11% in experiment [3]; -3.24% in experiment [4]; 4.5% in experiment [5]; 5.7% in experiment [6].

Take `COC(=O)N[C@@H](C)CNc1nccc(-c2cn(C(C)C)nc2-c2cc(Cl)cc(NS(C)(=O)=O)c2F)n1` [encorafenib]: the inhibition at 1 µM in experiment [1] (setting [7]) was 1%; in experiment [2] (setting [8]), 5.63%; in experiment [3] (setting [9]), -4.26%; in experiment [4] (setting [10]), 1.39%; in experiment [5] (setting [11]) it was -1.06%; in experiment [6] (setting [12]), 6.61%.

Regarding `Cc1cc(Nc2ncnc3ccc(NC4=NC(C)(C)CO4)cc23)ccc1Oc1ccn2ncnc2c1` [tucatinib], the inhibition at 1 µM in experiment [1] (setting [7]) was -2.79%; in experiment [2] (setting [8]) it was 2.27%; in experiment [3] (setting [9]), -2%; in experiment [4] (setting [10]), 1.14%; in experiment [5] (setting [11]) it was 1.07%; in experiment [6] (setting [12]), 2.31%.

For the compound `C=CC(=O)N1CCC([C@@H]2CCNc3c(C(N)=O)c(-c4ccc(Oc5ccccc5)cc4)nn32)CC1` [zanubrutinib], the inhibition at 1 µM in experiment [1] (setting [7]) is 0.514%; in experiment [2] (setting [8]), -2.42%; in experiment [3] (setting [9]), -2%; in experiment [4] (setting [10]), -2.31%; in experiment [5] (setting [11]), -6%; in experiment [6] (setting [12]), 3%.

On to `Cn1cnc2c(F)c(Nc3ccc(Br)cc3F)c(C(=O)NOCCO)cc21` [binimetinib], for which the inhibition at 1 µM was -6% in experiment [1] (setting [7]); 0.0241% in experiment [2] (setting [8]); -6.59% in experiment [3] (setting [9]); -4.37% in experiment [4] (setting [10]); -3.3% in experiment [5] (setting [11]); 4.47% in experiment [6] (setting [12]).

As to `COc1ccc(CN2C3CC2CN(c2ccc(-c4cc(OCC(C)(C)O)cn5ncc(C#N)c45)cn2)C3)cn1` [selpercatinib], the inhibition at 1 µM in experiment [1] (setting [7]) was -1.54%; in experiment [2] (setting [8]), -3%; in experiment [3] (setting [9]), -0.802%; in experiment [4] (setting [10]) it was 2.44%; in experiment [5] (setting [11]) it was 19%; in experiment [6] (setting [12]), 3%.

As for `CCN1C(=O)N(c2c(F)c(OC)cc(OC)c2F)Cc2cnc3[nH]c(CN4CCOCC4)cc3c21` [pemigatinib], the inhibition at 1 µM in experiment [1] (setting [7]) is -3.26%; in experiment [2] (setting [8]), 0.456%; in experiment [3] (setting [9]), -1.57%; in experiment [4] (setting [10]), -7%; in experiment [5] (setting [11]), -2.68%; in experiment [6] (setting [12]) it was 7%.

`CN1CCN(c2ccc(C(=O)Nc3n[nH]c4ccc(Cc5cc(F)cc(F)c5)cc34)c(NC3CCOCC3)c2)CC1` [entrectinib]: the inhibition at 1 µM in experiment [1] (setting [7]) is 3.25%; in experiment [2] (setting [8]), 5%; in experiment [3] (setting [9]), 17%; in experiment [4] (setting [10]), 12%; in experiment [5] (setting [11]), -3%; in experiment [6] (setting [12]), 98%.

Take `CO[C@]1(C(=O)N[C@@H](C)c2ccc(-n3cc(F)cn3)nc2)CC[C@H](c2nc(C)cc(Nc3cc(C)[nH]n3)n2)CC1` [pralsetinib]: the inhibition at 1 µM in experiment [1] (setting [7]) is 1.23%; in experiment [2] (setting [8]) it was 9%; in experiment [3] (setting [9]) it was 16%; in experiment [4] (setting [10]), -6%; in experiment [5] (setting [11]), -4.32%; in experiment [6] (setting [12]) it was 10%.

For the compound `C[C@H]1Oc2cc(cnc2N)-c2c(nn(C)c2C#N)CN(C)C(=O)c2ccc(F)cc21` [lorlatinib], the inhibition at 1 µM in experiment [1] (setting [7]) was -1.73%; in experiment [2] (setting [8]) it was 0.506%; in experiment [3] (setting [9]), 6%; in experiment [4] (setting [10]) it was 33%; in experiment [5] (setting [11]), -3.41%; in experiment [6] (setting [12]), 79%.
